Measurements as given in US7122533B2, “Cosalane compounds and methods for their use” (The United States of America as represented by the …, priority 1999, dated 2006).

Key:
Type in all cases: cell-based
[1] = test system: MCP-4/CCR2-mediated monocyte migration; test: MCP-4-induced human monocyte migration; conditions: FIG. 3
Procedure: (§1) Monocyte chemotaxis was performed as previously described [Wang (1993) J. Immunol. 150:3022–3029]. Briefly, monocytes were resuspended in binding media (RPMI-1640 media containing 1% BSA, 25 mM HEPES, pH 8.0) at 1–2×10^6 cells/ml. Chemokines, diluted in binding media, were mixed with cosalane or the indicated cosalane analog and placed in the lower wells of a micro-chemotaxis chamber (Neuro Probe, Cabin John, Md.). Five micrometer polyvinyl-free polycarbonate membranes were placed over the chemokine mixtures. After the micro-chemotaxis chamber was assembled, 50 μl of cells were placed in the upper wells. The filled chemotaxis chambers were incubated in a humidified CO2 incubator for 90 minutes.
(§2) After incubating, the membranes were removed from the chemotaxis chamber assembly followed by gently removing the cells from the upper side of the membrane. Then cells on the lower side of the membrane were stained.
(§3) The number of cells migrating to the chemokine mixtures was determined for binding media alone, and chemokine treated and untreated cells. HEK-293 cells transfected to express human CCR1, CCR3 or CCR5 receptors were resuspended in binding media at 7.5×10^5 cells/ml. Ten μm polyvinyl-free polycarbonate membranes (Neuro Probe) were treated with 47 ug/ml rat tail collagen type 1 (Collaborative Biomedical Products, Bedford, Md.) in RPMI-1640 overnight, dried and placed over the chemoattractants. The assembled chemotaxis chambers were incubated in a humidified CO2 incubator for 5.5–6 hours. After the incubation, the membranes were removed from the chemotaxis chamber assembly followed by gently removing cells from the upper side of the membrane. The stained and dried membrane was mounted and the cells on the underside of the membrane were counted at 200× magnification. The results are reported as the average number of cells per high powered field at a given chemokine concentration±standard deviation.
Although MCP-4 is known to bind to CCR2 and CCR3, fresh primary human monocytes only express high levels of CCR2.

[2] = test system: human monocytes (MIP1-β-induced migration); test: MIP1-β-induced monocyte migration; conditions: compound at 1 μM, chemokine at 2.5 ng/ml, data not shown
Procedure: as §1, with “Chemokines, diluted in binding media, were mixed with cosalane or the indicated cosalane analog and placed in the lower wells of a micro-chemotaxis chamber (Neuro Probe, Cabin John, Md.).” left out
as §2
as §3, with “magnification.” for “magnification. The results are reported as the average number of cells per high powered field at a given chemokine concentration±standard deviation.”
(§4) It is noted that both MIP1-α and MIP1-β are ligands for CCR1, CCR5, and D6 (8).

[3] = molecular target: T1, human CCR1 (Homo sapiens, UniProt P32246); test: MIP1α-induced migration of CCR1 transfectants; conditions: compound at 1 μM, data not shown
T1 construct: expressed in transfected cells; host or cells: HEK-293
T1 sequence (P32246 1-355): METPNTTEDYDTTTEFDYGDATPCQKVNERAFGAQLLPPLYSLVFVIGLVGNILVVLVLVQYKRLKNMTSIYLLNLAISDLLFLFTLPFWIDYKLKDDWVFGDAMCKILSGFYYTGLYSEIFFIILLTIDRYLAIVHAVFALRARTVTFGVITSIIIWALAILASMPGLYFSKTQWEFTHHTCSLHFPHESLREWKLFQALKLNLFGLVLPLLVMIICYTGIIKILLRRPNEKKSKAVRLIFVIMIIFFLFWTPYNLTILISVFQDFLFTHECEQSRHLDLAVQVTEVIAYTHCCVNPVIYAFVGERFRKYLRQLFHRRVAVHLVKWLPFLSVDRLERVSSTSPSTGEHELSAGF
Procedure: (§5) Human embryonic kidney cells 293 (HEK-293) transfected to express human CCR1, CCR3, or CCR5 receptors were cultured in Dulbecco's Modified Eagles Medium (DMEM, Biowhiftaker, Walkersville, Md.) containing 10% Fetal Bovine Serum (FBS, Hyclone, Logan, Utah), 2 mM glutamine and 100 U/ml penicillin and streptomycin (Quality Biologicals, Gaithersburg, Md.). Peripheral blood mononuclear cells were isolated from fresh normal donor apheresis packs by centrifugation over Ficoll. Monocytes were enriched by 85–95% using percoll fractionation (Pharmacia, Piscataway, N.J.).
as §3
(§6) The ability of compound 3 to inhibit RANTES-induced migration of human embryonic kidney (HEK) cells transfected to express individual chemokine receptors was initially tested. Although the cosalane analog 3 (1 μM) had no effect on RANTES-induced migration of CCR5 transfectants, it inhibited 50% of RANTES-induced CCR1 transfectant migration (FIG. 2). In contrast, the MIP1α- and MIP1β-induced migration of CCR1 transfectants was not inhibited by compounds 1, 2 or 3 when tested at concentrations of 1 μM (data not shown).

[4] = molecular target: T1, human CCR1; test: RANTES-induced CCR1/HEK-293 transfectant migration
Procedure: as §5, with “Ficoll.” for “Ficoll. Monocytes were enriched by 85–95% using percoll fractionation (Pharmacia, Piscataway, N.J.).”
as §3, with “magnification.” for “magnification. The results are reported as the average number of cells per high powered field at a given chemokine concentration±standard deviation.”

[5] = molecular target: T1, human CCR1; test: MIP1β-induced migration of CCR1 transfectants; conditions: compound at 1 μM, data not shown
Procedure: as §5, §3, §6

[6] = test system: human monocytes (acetylated RANTES-induced migration); test: monocyte migration induced by acetylated (modified) RANTES; conditions: 10 μM compound; acetylated RANTES 50–1000 ng/mL, FIG. 6
Procedure: as §1, §2
as §3, with “deviation. […]” for “deviation.”

[7] = test system: human monocytes (MIP1-α-induced migration); test: MIP1-α-induced monocyte migration; conditions: compound at 1 μM, chemokine at 2.5 ng/ml, data not shown
Procedure: as §1, with “Chemokines, diluted in binding media, were mixed with cosalane or the indicated cosalane analog and placed in the lower wells of a micro-chemotaxis chamber (Neuro Probe, Cabin John, Md.).” left out
as §2
as §3, with “magnification.” for “magnification. The results are reported as the average number of cells per high powered field at a given chemokine concentration±standard deviation.”
as §4

[8] = test system: human monocytes (RANTES-induced migration); test: RANTES-induced monocyte migration (micro-chemotaxis chamber)
Procedure: as §5, §1, §2, §3

[9] = molecular target: T2, human CCR5 (Homo sapiens, UniProt P51681); test: RANTES-induced CCR5/HEK-293 transfectant migration; conditions: compound at 1 μM, FIG. 2
T2 construct: expressed in transfected cells; host or cells: HEK-293
T2 sequence (P51681 whole entry): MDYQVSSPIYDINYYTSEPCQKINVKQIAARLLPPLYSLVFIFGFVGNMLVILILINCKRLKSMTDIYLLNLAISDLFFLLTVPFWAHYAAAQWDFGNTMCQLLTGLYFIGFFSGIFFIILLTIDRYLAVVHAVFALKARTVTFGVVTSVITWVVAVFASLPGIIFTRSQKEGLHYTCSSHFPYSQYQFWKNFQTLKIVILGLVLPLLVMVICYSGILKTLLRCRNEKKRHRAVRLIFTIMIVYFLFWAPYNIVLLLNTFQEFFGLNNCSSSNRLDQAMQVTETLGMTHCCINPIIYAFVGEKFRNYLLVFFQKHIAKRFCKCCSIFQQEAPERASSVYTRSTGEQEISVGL
Procedure: as §5
as §3, with “After the incubation, the membranes were removed from the chemotaxis chamber assembly followed by gently removing cells from the upper side of the membrane.” left out, “The results are reported as the average number of cells per high powered field at a given chemokine concentration±standard deviation.” left out

[10] = test system: human monocytes (SDF-1α-induced migration; CXCR4 ligand); test: SDF-1α-induced monocyte/lymphocyte migration; conditions: compound at 1 μM, FIG. 1
Procedure: as §1, §2
The number of cells migrating to the chemokine mixtures was determined for binding media alone, and chemokine treated and untreated cells. […] The stained and dried membrane was mounted and the cells on the underside of the membrane were counted at 200× magnification. […]
The ability of the cosalane analogs 3 and 4 to block SDF-1α (a CXCR4 ligand) and RANTES (a CCR1, CCR3, and CCR5 ligand) induced migration of human monocytes or lymphocytes was initially evaluated. […]

With CC(C)CCCC(C)[C@H]1CCC2C3CCC4C[C@@H](CCC=C(c5cc(Cl)c(OCc6ccccc6C(=O)O)c(C(=O)O)c5)c5cc(Cl)c(OCc6ccccc6C(=O)O)c(C(=O)O)c5)CC[C@]4(C)C3CC[C@@]21C (stereo partly shown) [Compound 3] the “block of MCP-4/CCR2-mediated monocyte migration” value [1] was “block”, the “inhibition of MIP1-β-induced monocyte migration” value [2] was “neither MiP1-α- nor MIP1-β-induced monocyte migration was inhibited” and the “inhibition of MIP1α-induced migration of CCR1 transfectants” value [3] was “not inhibited”. The inhibition at 1 µM ([4]; HEK293, compound at 1 μM, FIG. 2) was 50%, the IC50 ([4]; ≦ 5% standard error, NA = not active, read-out: IC50 (μM) RANTES-Induced CCRI/HEK Migration) was 0.26 µM and the “inhibition of MIP1β-induced migration of CCR1 transfectants” value [5] was “not inhibited”. For the same compound, the “inhibition of the activity of modified (acetylated) RANTES to attract monocytes” value [6] was “not inhibited”, the “inhibition of MIP1-α-induced monocyte migration” value [7] was “neither MiP1-α- nor MIP1-β-induced monocyte migration was inhibited” and the IC50 ([8]; Homo sapiens, Monocyte, ≦ 5% standard error, NA = not active) was 3.9 µM. For the same compound, the “inhibition of RANTES-induced monocyte migration” value ([8]; compound at 1 μM, FIG. 1) was “effective inhibitor”, the “activity as inhibitors of RANTES-induced migration” value ([8]; discussion of Table 1) was “retain activity” and the “effect on RANTES-induced migration of CCR5 transfectants” value [9] was “no effect”. The “inhibition of SDF-1α-induced monocyte migration” value [10] was “effective inhibitor”.
